Laboratory results reported in ChEMBL document CHEMBL1221225, “A small molecule that directs differentiation of human ESCs into the pancreatic lineage” (Nat Chem Biol, 2009).
Active and inactive are the calls of the source. No cut-off for these calls is given here.

Tests used:
[1] = Induction of insulin production in differentiated human HUES8 cells at 300 nM after 4 days by immunocytochemistry (reference value: 0.2+/-0.1%); type: functional
[2] = Induction of human HUES9 cell differentiation into pancreatic lineage assessed as increase in Pdx1-expression in cells pregrown with medium containing Wnt, activin, FGF10, KAAD-cyclopamine and retinoic acid at 1 uM after 4 days by Opera high content screening system; type: functional
[3] = Induction of human HUES9 cell differentiation into pancreatic lineage assessed as increase in Pdx1-expression in cells pregrown with medium containing Wnt, activin, FGF10, KAAD-cyclopamine and retinoic acid after 1 day by Opera high content screening system; type: functional, cell-based; details: HUES9, 24 h
[4] = Induction of human HUES8 cell differentiation into pancreatic progenitor cells assessed as increase in Pdx1-expression in cells pregrown with medium containing Wnt, activin, FGF10, KAAD-cyclopamine and retinoic acid at 300 nM after 4 days by Opera high content screening system relative to control; type: functional
[5] = Induction of human HUES8 cell differentiation into pancreatic progenitor cell assessed as HNF6 expression in cells pregrown in medium containing Wnt, activin, FGF10, KAAD-cyclopamine and retinoic acid at 300 nM after 4 days by immunocytochemistry relative to control; type: functional
[6] = Induction of human HUES8 cell differentiation into pancreatic progenitor cell assessed as PTF1A expression in cells pregrown in medium containing Wnt, activin, FGF10, KAAD-cyclopamine and retinoic acid at 300 nM after 4 days by immunocytochemistry relative to control; type: functional
HUES8 [7] = test: Induction of human HUES8 cell differentiation into pancreatic progenitor cell assessed as increase in HNF6 mRNA expression at 300 nM after 4 days by RT-PCR analysis cells pregrown in medium containing Wnt, activin, FGF10, KAAD-cyclopamine and retinoic acid; type: functional, cell-based
HUES8 [8] = test: Induction of human HUES8 cell differentiation into pancreatic progenitor cell assessed as increase in PTF1A mRNA expression at 300 nM after 4 days by RT-PCR analysis cells pregrown in medium containing Wnt, activin, FGF10, KAAD-cyclopamine and retinoic acid; type: functional, cell-based
HUES8 [9] = test: Induction of human HUES8 cell differentiation into pancreatic progenitor cell assessed as increase in PROX1 mRNA expression at 300 nM after 4 days by RT-PCR analysis cells pregrown in medium containing Wnt, activin, FGF10, KAAD-cyclopamine and retinoic acid; type: functional, cell-based
HUES8 [10] = test: Induction of human HUES8 cell differentiation into endocrine progenitor cell assessed as increase in NKX2.2 mRNA expression at 300 nM after 4 days by RT-PCR analysis cells pregrown in medium containing Wnt, activin, FGF10, KAAD-cyclopamine and retinoic acid; type: functional, cell-based
HUES8 [11] = test: Induction of human HUES8 cell differentiation into pancreatic progenitor cell assessed as increase in NKX6.1 mRNA expression at 300 nM after 4 days by RT-PCR analysis cells pregrown in medium containing Wnt, activin, FGF10, KAAD-cyclopamine and retinoic acid; type: functional, cell-based
Homo sapiens [12] = species on record: Homo sapiens; test: Effect on human HUES8 differentiation into neuronal lineage assessed as c-peptide/betaIIItubulin double positive cells at 300 nM after 4 days by immunocytochemistry; type: functional, cell-based
Homo sapiens [13] = species on record: Homo sapiens; test: Effect on human HUES8 differentiation into neuronal lineage assessed as c-peptide/GFAP double positive cells at 300 nM after 4 days by immunocytochemistry; type: functional
[14] = Induction of human HUES8 differentiation into pancreatic lineage assessed as increase in amylase/CPA double-positive exocrine cells at 300 nM after 4 days by RT-PCR (Rvb (DMSO) = 0.2+/-0.1%); type: functional
[15] = Induction of human HUES8 differentiation into pancreatic lineage assessed as increase in DBA-positive exocrine cells at 300 nM after 4 days by RT-PCR (reference value: 0.8+/-0.2%); type: functional
Homo sapiens [16] = species on record: Homo sapiens; test: Induction of human HUES8 differentiation into pancreatic lineage assessed as increase in somatostatin-producing endocrine cells at 300 nM after 4 days by immunostaining; type: functional
Mus musculus [17] = species on record: Mus musculus; test: Induction of mouse AV3 Pdx1-expressing cell differentiation assessed as increase in SOX9 expression at 300 nM after 6 days by immunohistochemistry pretreated with 1000 ng/ml recombinant mouse Nodal for 5 days; type: functional
AV3 [18] = test: Induction of mouse AV3 cell differentiation into pancreatic lineage assessed as increase in cdcp1 mRNA expression at 300 nM after 6 days by RT-PCR analysis pretreated with 1000 ng/ml recombinant mouse Nodal for 5 days; type: functional, cell-based
AV3 [19] = test: Induction of mouse AV3 cell differentiation into pancreatic lineage assessed as increase in Hnf6 mRNA expression at 300 nM after 6 days by RT-PCR analysis pretreated with 1000 ng/ml recombinant mouse Nodal for 5 days; type: functional, cell-based
AV3 [20] = test: Induction of mouse AV3 cell differentiation into pancreatic lineage assessed as increase in Nkx2.2 mRNA expression at 300 nM after 6 days by RT-PCR analysis pretreated with 1000 ng/ml recombinant mouse Nodal for 5 days; type: functional, cell-based
[21] = Induction of cell proliferation in human HUES8 Pdx1 expressing cells assessed as expression of Ki67 at 300 nM after 4 days by immunocytochemistry; type: functional
Homo sapiens [22] = species on record: Homo sapiens; test: Induction of human HUES8 differentiation into definitive endoderm assessed as expression of SOX17 at 300 nM after 3 days by immunocytochemistry in presence of Wnt3a and activin A; type: functional
[23] = Inhibition of PKC signaling in human HUES8 cells assessed as decrease in Pdx1-expressing cells at 1 uM after 4 days cells pregrown in medium with Wnt3a, activin A, FGF10, KAAD-cyclopamine and retinoic acid in presence of 10 uM Go 6983 by immunocytochemistry (reference value: 26.9+/-2.8%); type: cell-based
[24] = Inhibition of PKC signaling in human HUES8 cells assessed as decrease in Pdx1-expressing cells at 4 uM after 4 days by immunocytochemistry in presence of ILV pregrown in medium with Wnt3a, activin A, FGF10, KAAD-cyclopamine and retinoic acid (reference value: 26.9+/-2.8%); type: cell-based
Mus musculus [25] = species on record: Mus musculus; test: Induction of SOX7 expression in CD1 nude mouse extra-embryonic endoderm at 300 nM after 4 days by fluorescent confocal microscopy; type: functional, tissue-based
Intestine [26] = test: Induction of CDX2 expression in CD1 nude mouse intestine at 300 nM after 4 days by fluorescent confocal microscopy; type: functional, tissue-based
Intestine [27] = test: Induction of CES2 expression in CD1 nude mouse intestine at 300 nM after 4 days by fluorescent confocal microscopy; type: functional, tissue-based
Intestine [28] = test: Induction of FABP2 expression in CD1 nude mouse intestine at 300 nM after 4 days by fluorescent confocal microscopy; type: functional, tissue-based
Liver [29] = test: Induction of AFP expression in CD1 nude mouse liver at 300 nM after 4 days by fluorescent confocal microscopy; type: functional, tissue-based
Liver [30] = test: Induction of Albumin expression in CD1 nude mouse liver at 300 nM after 4 days by fluorescent confocal microscopy; type: functional, tissue-based
Mus musculus [31] = species on record: Mus musculus; test: Induction of desmin expression in CD1 nude mouse mesoderm at 300 nM after 4 days by fluorescent confocal microscopy; type: functional, tissue-based

## CC(C)[C@H]1C(=O)N[C@H](CO)Cc2c[nH]c3cccc(c23)N1C [INDOLACTUM]
[1]
  Activity: 0.5%
[2]
  Activity: 10.9%
[3]
  EC50: 142 nM
[4]
  Activity: 26.9%
[5]
  Activity: 91.3%
[6]
  Activity: 90.1%
HUES8 [7]
  Activity: Active
HUES8 [8]
  Activity: Active
HUES8 [9]
  Activity: Active
HUES8 [10]
  Activity: Active
HUES8 [11]
  Activity: Active
Homo sapiens [12]
  Activity: inactive
Homo sapiens [13]
  Activity: inactive
[14]
  Activity: 22.7%
[15]
  Activity: 3.6%
Homo sapiens [16]
  Activity: Active
Mus musculus [17]
  Activity: Active
AV3 [18]
  Activity: Active
AV3 [19]
  Activity: Active
AV3 [20]
  Activity: Active
[21]
  Activity: 0.1%
Homo sapiens [22]
  Activity: inactive
[23]
  inhibition: 0.8%
[24]
  inhibition: 1.2%
Mus musculus [25]
  Activity: inactive
Intestine [26]
  Activity: inactive
Intestine [27]
  Activity: inactive
Intestine [28]
  Activity: inactive
Liver [29]
  Activity: inactive
Liver [30]
  Activity: inactive
Mus musculus [31]
  Activity: inactive
